ChEMBL document CHEMBL4118141, “Design, synthesis and biological evaluation of novel hydrogen sulfide releasing capsaicin derivatives” (Bioorg Med Chem, 2018)
Calls of active or inactive are those of the source. No cut-off for these calls is given here.

Columns and labels:
[1] = biological target: Transient receptor potential cation channel subfamily V member 1 (Homo sapiens) (UniProt Q8NER1); assay: Agonist activity at human TRPV1 expressed in HEK293 cells assessed as increase in calcium influx by measuring ratio of 340/380 nm excitatory wavelength at 10 uM treated for 2 mins by Fura-2AM dye-based fluorescence assay; type: cell-based
Transient receptor potential cation channel subfamily V member 1 (Homo sapiens), sequence (Q8NER1 whole entry): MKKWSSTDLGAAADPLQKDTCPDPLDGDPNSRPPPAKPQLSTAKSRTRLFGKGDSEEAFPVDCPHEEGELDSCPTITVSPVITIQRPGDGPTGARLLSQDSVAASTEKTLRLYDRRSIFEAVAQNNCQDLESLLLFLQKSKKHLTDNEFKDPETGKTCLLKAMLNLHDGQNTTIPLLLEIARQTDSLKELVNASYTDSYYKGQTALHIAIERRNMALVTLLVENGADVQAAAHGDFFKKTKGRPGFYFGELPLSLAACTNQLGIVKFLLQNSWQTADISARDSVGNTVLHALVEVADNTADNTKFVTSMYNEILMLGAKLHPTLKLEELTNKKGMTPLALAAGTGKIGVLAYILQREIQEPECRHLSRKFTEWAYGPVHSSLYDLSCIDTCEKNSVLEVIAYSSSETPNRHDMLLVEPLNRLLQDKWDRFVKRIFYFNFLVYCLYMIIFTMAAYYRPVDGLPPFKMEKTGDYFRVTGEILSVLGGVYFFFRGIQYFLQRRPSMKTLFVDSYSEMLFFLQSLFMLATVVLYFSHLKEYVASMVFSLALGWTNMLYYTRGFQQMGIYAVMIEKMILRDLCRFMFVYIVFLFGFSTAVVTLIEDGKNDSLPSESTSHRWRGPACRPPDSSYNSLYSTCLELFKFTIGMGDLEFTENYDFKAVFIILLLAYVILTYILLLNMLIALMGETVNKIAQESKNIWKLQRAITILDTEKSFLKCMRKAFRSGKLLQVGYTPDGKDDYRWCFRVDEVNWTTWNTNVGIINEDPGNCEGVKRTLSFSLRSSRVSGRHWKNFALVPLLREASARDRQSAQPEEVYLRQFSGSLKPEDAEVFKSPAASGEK

HeLa = assay: Antiproliferative activity against human HeLa cells after 48 hrs by MTT assay; type: functional, cell-based
K562 = assay: Antiproliferative activity against human K562 cells after 48 hrs by MTT assay; type: functional, cell-based; conditions: K562, 48 h
Mus musculus [2] = assay: Antinociceptive activity in capsaicin-induced nociception pain Kunming mouse model assessed as reduction in time spent in paw licking at 60 mg/kg, po pretreated for 30 mins followed by capsaicin challenge measured for 5 mins post capsaicin challenge; type: functional, organism-based
MCF7 = assay: Antiproliferative activity against human MCF7 cells after 48 hrs by MTT assay; type: functional, cell-based; conditions: MCF7, 48 h
Mus musculus [3] = assay: Antinociceptive activity in Kunming mouse model assessed as inhibition of acetic acid-induced writhes at 60 mg/kg, po pretreated for 30 mins followed by acetic acid challenge measured for 15 mins post acetic acid challenge; type: functional, organism-based
Mus musculus [4] = assay: Ulcerogenic activity in Kunming mouse assessed as lesion in stomach at 30 mg/kg, po qd for 6 days measured on day 7 by microscopic analysis; type: toxicity, organism-based; conditions: in vivo, 144 h
Mus musculus [5] = assay: Antinociceptive activity in Kunming mouse model of thermal-induced nociception assessed as increase in latency to tail withdrawal at 60 mg/kg, po by tail flick test; type: functional, organism-based
[6] = Acute toxicity in po dosed CD rat measured for 7 days; type: organism-based; conditions: in vivo

SMILES	Ratio [1]	IC50 (HeLa) [µM]	IC50 (K562) [µM]	Activity (Mus musculus [2])	IC50 (MCF7) [µM]	inhibition (Mus musculus [3])	Activity (Mus musculus [4])	Activity (Mus musculus [5])	LD50 at 168 h [6] [mg/kg]
COc1cc(CNC(=O)CCCC/C=C/C(C)C)ccc1OCCCCOc1ccc(C(N)=S)cc1	1.7	> 50	> 50	Active	49.8	Active	–	–	–
COc1cc(CNC(=O)CCCCCCC(C)C)ccc1O [DIHYDROCAPSAICIN]	2	> 50	> 50	–	> 50	–	–	–	–
COc1cccc2c1C(=O)c1c(O)c3c(c(O)c1C2=O)C[C@@](O)(C(=O)CO)C[C@@H]3O[C@H]1C[C@H](N)[C@H](O)[C@H](C)O1 [DOXORUBICIN]	–	0.451	1.51	–	–	–	–	–	–
COc1cc(CNC(=O)CCCCCCC(C)C)ccc1OC(=O)CCC(=O)Oc1ccc(-c2cc(=S)ss2)cc1	1.96	5.53	5.93	Active	2.56	Active	–	–	–
COc1cc(CNC(=O)CCCC/C=C/C(C)C)ccc1OCCCCCOc1ccc(C(N)=S)cc1	1.87	46.4	> 50	Active	17.2	Active	–	–	–
COc1cc(CNC(=O)CCCC/C=C/C(C)C)ccc1OC(=O)c1ccc(C(N)=S)cc1	1.77	39.6	> 50	Active	39.4	Active	Non-Toxic	–	–
COc1cc(CNC(=O)CCCCCCC(C)C)ccc1OCCCCCOc1ccc(-c2cc(=S)ss2)cc1	1.69	> 50	> 50	Active	48.6	Active	–	–	–
COc1cc(CNC(=O)CCCCCCC(C)C)ccc1OCCCCOc1ccc(C(N)=S)cc1	1.59	40.7	> 50	Active	4.99	Active	–	–	–
COc1cc(CNC(=O)CCCC/C=C/C(C)C)ccc1OCCCCCOc1ccc(-c2cc(=S)ss2)cc1	1.71	> 50	> 50	Active	> 50	Active	–	–	–
CC(C)(C)c1ccc(NC(=O)N2CCN(c3ncccc3Cl)CC2)cc1	–	–	–	–	–	–	–	Active	–
COc1cc(CNC(=O)CCCCCCC(C)C)ccc1OC(=O)CCC(=O)Oc1ccc(C(N)=S)cc1	1.87	> 50	–	Active	–	Active	–	–	–
COc1cc(CNC(=O)CCCC/C=C/C(C)C)ccc1OC(=O)CCC(=O)Oc1ccc(C(N)=S)cc1	1.94	> 50	> 50	Active	> 50	Active	Non-Toxic	–	–
COc1cc(CNC(=O)CCCC/C=C/C(C)C)ccc1OCCCCOc1ccc(-c2cc(=S)ss2)cc1	1.96	47.1	> 50	Active	36.4	Active	Non-Toxic	Active	–
COc1cc(CNC(=O)CCCC/C=C/C(C)C)ccc1O [CAPSAICIN]	–	> 50	49.4	–	50	–	Toxic	–	161
COc1cc(CNC(=O)CCCCCCC(C)C)ccc1OCCCCOc1ccc(-c2cc(=S)ss2)cc1	1.69	44.6	> 50	Active	49.5	Active	–	–	–
COc1cc(CNC(=O)CCCCCCC(C)C)ccc1OCCCCCOc1ccc(C(N)=S)cc1	1.76	> 50	> 50	Active	49.3	Active	–	–	–
COc1cc(CNC(=O)CCCCCCC(C)C)ccc1OC(=O)c1ccc(C(N)=S)cc1	1.69	> 50	> 50	Active	> 50	Active	–	–	–
COc1cc(CNC(=O)CCCC/C=C/C(C)C)ccc1OC(=O)CCC(=O)Oc1ccc(-c2cc(=S)ss2)cc1	2.1	4.25	4.45	Active	2.12	Active	Non-Toxic	Active	–
